We go through 1 molecule from patent US8557843B2, “Quinoline derivatives and their use as tyrosine kinase inhibitors” (ClanoTech AB, priority 2007, dated 2013).

The subject of experiment [1] is human Calu-6 lung cancer cells. The experiment in a line: Tumor xenograft model. It is filed as in vivo, SCID mice. The note with it: 25 mg/kg/day; for inhibition of tumor volume: once daily for 17 days, Calu-6 subcutaneous in SCID mice. As to the method:
Female 6-week-old SCID mice were used for tumor studies. Approximately 10^6 human Calu-6 lung cancer cells growing in logarithmic phase were harvested and resuspended in media, and a single cell solution in a volume of […] was implanted subcutaneously at the right flank of each animal. 10 mice were used in the treated groups and 10 mice were used in the control groups. Systemic treatment by oral administration or iv injections with either […] of vehicle or active substance (25 mg/kg/day) was begun when tumors reached a size of 300 mm^3 and continued once daily for a total of 17 days. Visible tumors were present day 5-10 after implantation. Primary tumors were measured with digital calipers on the days indicated. Tumor volumes were calculated according to the formula: Length×width^2×0.52 as reported.

Experiment [2] deals with CNV (chorodial neovascularization). The experiment in a line: Laser induced mouse eye model (CNV). Format: in vivo. The note with it: given orally at 50 mg/kg/day, laser-induced CNV in mice. From the text: This laser-induced model of CNV is a highly reproducible model that mimics many features of CNV occurring in the wet form of age-related macular degeneration (AMD), the leading cause of blindness in the elderly.

Another experiment concerns the target T1, alpha-5-beta-1 (Homo sapiens, UniProt P05556+P08648).
T1 construct: obtained from academic sources as recombinant, soluble proteins (the extracellular domain)
The experiment in a line: Integrin assay: SHG, inhibition of RGD-peptide-induced conformational change. It is filed as biochemical. The note with it: compound pre-incubated at 100 μM for 20 minutes, then RGD peptide 400 μM; labeled alpha-5-beta-1. The procedure: (§1) This assay was conducted by Biodesy (Burlingame, Calif., USA). Purified integrins were obtained from academic and commercial sources. Alpha-5-beta-1 and alpha-v-beta-3 were obtained from academic sources as recombinant, soluble proteins (the extracellular domain).
(§2) A standard labeling protocol developed for integrins was applied to each of the three proteins. All proteins were successfully labeled with an average label:protein ratio of ˜4:1. The two soluble, labeled proteins (alpha5beta1 and alphavbeta3) produced background SHG (second-harmonic generation) signals. They also produced conformational change signals upon exposure to GRGDSP (RGD-peptide, a fibronectin-derived peptide Gly-Arg-Gly-Asp-Ser-Pro). The peptide was added at 400 μM and signal changes were immediate (FIG. 1).
(§3) Next, Example 4 was pre-incubated at 100 μM with the labeled proteins for 20 minutes. RGD peptide was then added (400 μM) to stimulate the protein and to test each compound for inhibition.

The target of a further experiment is T2, alpha-v-beta-3 (Homo sapiens, UniProt P05106+P06756).
T2 construct: obtained from academic sources as recombinant, soluble proteins (the extracellular domain)
T2 sequence (P06756 31-992 limits assumed): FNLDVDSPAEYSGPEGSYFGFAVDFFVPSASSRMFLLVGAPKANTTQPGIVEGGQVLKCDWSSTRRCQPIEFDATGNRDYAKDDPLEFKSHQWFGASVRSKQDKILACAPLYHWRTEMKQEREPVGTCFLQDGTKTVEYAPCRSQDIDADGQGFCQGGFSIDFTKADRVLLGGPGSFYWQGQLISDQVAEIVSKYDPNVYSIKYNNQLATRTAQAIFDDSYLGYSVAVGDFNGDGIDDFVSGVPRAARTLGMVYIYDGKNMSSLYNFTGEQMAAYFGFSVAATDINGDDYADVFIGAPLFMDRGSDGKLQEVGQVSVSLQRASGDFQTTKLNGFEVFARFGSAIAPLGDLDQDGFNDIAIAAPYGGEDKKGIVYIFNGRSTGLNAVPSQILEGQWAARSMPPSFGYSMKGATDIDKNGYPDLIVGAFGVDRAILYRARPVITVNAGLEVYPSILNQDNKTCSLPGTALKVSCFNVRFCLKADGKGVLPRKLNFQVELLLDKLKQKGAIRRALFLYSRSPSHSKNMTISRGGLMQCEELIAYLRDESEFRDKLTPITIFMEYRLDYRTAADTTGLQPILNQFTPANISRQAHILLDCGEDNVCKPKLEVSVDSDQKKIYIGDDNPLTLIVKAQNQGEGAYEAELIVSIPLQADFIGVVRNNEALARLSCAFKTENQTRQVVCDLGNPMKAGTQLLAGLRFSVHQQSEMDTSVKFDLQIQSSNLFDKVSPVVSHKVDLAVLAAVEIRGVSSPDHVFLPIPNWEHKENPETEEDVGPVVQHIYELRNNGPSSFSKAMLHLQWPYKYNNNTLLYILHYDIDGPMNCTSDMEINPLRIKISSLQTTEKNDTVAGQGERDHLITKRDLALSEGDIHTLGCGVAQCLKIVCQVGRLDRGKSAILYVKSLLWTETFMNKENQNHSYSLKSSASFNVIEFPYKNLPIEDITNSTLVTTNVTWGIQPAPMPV
T2 sequence (P05106 27-718 limits assumed): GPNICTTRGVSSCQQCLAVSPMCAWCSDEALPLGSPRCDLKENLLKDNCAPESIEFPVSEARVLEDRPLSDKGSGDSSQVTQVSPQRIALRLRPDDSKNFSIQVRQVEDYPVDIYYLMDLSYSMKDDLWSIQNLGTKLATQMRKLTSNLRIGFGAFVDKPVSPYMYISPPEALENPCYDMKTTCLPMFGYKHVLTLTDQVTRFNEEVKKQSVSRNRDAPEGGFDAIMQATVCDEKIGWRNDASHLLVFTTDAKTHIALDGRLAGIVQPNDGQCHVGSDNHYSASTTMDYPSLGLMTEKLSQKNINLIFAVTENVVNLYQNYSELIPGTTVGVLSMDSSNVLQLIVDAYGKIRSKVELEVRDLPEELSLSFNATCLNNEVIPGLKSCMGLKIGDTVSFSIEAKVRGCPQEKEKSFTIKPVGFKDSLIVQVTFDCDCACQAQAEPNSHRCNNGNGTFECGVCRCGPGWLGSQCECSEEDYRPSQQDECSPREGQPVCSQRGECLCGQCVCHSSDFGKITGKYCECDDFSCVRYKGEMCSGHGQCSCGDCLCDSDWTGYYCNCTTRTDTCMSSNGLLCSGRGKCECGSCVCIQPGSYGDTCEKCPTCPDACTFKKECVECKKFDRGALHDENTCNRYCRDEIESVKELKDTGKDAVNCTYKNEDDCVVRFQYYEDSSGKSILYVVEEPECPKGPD
The experiment is described as above. Format: biochemical. The note with it: compound pre-incubated at 100 μM for 20 minutes, then RGD peptide 400 μM; labeled alpha-v-beta-3. The procedure: as §1, §2, §3

T1 sequence (P08648 42-995 limits assumed): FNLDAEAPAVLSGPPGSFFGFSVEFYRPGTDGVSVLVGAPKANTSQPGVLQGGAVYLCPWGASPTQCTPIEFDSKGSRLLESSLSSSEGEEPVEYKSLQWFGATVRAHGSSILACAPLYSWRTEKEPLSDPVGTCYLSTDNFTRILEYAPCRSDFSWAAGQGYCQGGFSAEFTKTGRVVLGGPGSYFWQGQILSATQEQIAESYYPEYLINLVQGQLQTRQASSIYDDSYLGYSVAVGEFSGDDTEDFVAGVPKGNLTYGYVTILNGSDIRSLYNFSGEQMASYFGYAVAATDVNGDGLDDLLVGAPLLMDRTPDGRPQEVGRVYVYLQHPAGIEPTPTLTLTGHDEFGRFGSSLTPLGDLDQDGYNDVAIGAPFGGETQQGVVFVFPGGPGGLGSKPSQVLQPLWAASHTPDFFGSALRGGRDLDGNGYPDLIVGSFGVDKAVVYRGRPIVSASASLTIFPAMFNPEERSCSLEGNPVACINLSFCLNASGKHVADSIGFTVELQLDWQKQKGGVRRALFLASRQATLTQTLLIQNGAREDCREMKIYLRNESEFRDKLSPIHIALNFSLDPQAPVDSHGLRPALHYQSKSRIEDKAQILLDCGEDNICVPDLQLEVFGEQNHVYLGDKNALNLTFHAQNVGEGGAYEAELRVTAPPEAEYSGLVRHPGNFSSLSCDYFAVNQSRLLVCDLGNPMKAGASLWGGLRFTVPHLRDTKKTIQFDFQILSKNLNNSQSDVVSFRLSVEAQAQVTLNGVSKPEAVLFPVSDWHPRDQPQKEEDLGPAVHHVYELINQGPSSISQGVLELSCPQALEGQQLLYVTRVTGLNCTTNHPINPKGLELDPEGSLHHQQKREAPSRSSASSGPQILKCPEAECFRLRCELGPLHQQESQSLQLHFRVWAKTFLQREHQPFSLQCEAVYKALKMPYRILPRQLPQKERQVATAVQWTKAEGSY
T1 sequence (P05556 21-728 limits assumed): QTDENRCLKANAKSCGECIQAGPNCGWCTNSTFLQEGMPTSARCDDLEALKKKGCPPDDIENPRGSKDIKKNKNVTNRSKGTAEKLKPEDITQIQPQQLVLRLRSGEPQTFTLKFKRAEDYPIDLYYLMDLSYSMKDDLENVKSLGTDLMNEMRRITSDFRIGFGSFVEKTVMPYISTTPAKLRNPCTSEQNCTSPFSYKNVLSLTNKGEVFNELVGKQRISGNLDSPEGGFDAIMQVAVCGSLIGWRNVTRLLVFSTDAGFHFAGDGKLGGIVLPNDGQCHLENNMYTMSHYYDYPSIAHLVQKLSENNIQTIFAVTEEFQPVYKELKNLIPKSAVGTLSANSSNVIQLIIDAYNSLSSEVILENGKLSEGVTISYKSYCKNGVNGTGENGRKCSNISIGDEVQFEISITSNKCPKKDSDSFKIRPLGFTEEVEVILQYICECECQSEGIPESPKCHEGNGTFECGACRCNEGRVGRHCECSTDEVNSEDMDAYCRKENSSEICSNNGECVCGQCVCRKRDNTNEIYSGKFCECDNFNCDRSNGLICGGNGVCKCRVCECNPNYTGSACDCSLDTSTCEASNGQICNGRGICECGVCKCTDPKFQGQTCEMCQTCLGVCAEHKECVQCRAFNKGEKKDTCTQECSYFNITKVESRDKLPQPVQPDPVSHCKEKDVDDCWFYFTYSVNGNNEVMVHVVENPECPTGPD

In the case of `CNC(=O)c1ccc2ncc(C(=O)O)c(Nc3ccc(OC)cc3)c2c1` [Example 4, 4-[(4-Methoxyphenyl)amino]-6-(methylcarbamoyl)quinoline-3-carboxylic Acid], the inhibition of angiogenesis result in experiment [1] (both groups (oral and iv), Calu-6 xenograft) is recorded as “inhibits angiogenesis significantly”. Further, the figures for the “inhibition of tumor volume” value in experiment [1] (iv treatment) and in experiment [1] (oral treatment) were 71% and 52%, respectively. The “inhibition of CNV growth in eye compared with control” value in experiment [2] is recorded as 42%. The “effect on RGD-induced conformational change (SHG signal)” value on alpha-5-beta-1 is given as “prevented RGD-induced conformational change”; at alpha-v-beta-3, “no effect”.
